In ChEMBL document CHEMBL1122552, “Synthesis and biological evaluation of 6-amino-1H-pyrrolo[3,2-c]pyridin-4(5H)-one (3,7-dideazaguanine)” (1984):
Converted amounts (≈) assume the structure as drawn.

These molecules were tested on Vaccinia virus (assay: The minimum inhibitory concentration required to reduce vaccinia virus induced cytopathogenicity in primary rabbit kidney cells by 50%). Conditions: Orthopoxvirus vaccinia.
Assay type: functional

Structure (SMILES)	MIC [µg/mL]
Nc1cc2[nH]ccc2c(O)n1	400 (≈ 2680 µM)
Nc1ncnc2c1ncn2C[C@H](O)CO [(S)-DHPA]	10 (≈ 47.8 µM)
Nc1cc2[nH]cnc2c(=O)[nH]1 [DEZAGUANINE]	0.1 (≈ 0.666 µM)
NC(=O)c1ncn([C@@H]2O[C@H](CO)[C@@H](O)[C@H]2O)n1 [RIBAVIRIN]	40 (≈ 164 µM)
